Measured values from patent EP2058315A1, “1H-Furo[3,2-C]Pyrazoles active as aurora kinase inhibitors” (Nerviano Medical Sciences S.r.l., priority 2007, dated 2009).

Molecular target: T1, Aurora-2 (Homo sapiens, UniProt O14965)
T1 sequence (O14965 1-403): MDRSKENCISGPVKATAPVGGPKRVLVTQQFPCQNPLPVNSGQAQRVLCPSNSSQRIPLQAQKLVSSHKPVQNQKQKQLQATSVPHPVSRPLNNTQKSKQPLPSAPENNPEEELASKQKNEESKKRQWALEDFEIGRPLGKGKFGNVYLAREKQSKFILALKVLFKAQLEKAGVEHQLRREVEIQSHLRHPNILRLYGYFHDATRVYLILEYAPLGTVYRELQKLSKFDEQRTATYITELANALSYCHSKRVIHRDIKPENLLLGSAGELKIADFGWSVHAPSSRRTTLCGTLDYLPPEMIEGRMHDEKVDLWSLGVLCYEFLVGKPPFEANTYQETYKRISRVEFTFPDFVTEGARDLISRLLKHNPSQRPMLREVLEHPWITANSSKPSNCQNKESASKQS
Experiment: Inhibition assay of Aurora-2 activity (SPA technology)
Type: biochemical
Conditions: screened according to the methods of the pharmacology section; read-out: IC50values for Aur2 inhibition
Description: The inhibiting activity and the potency of selected compounds is determined through a method of assay based on the use of the SPA technology (Amersham Pharmacia Biotech).
The assay consists of the transfer of radioactivity labelled phosphate moiety by the kinase to a biotinylated substrate. The resulting 33P-labelled biotinylated product is allowed to bind to streptavidin-coated SPA beads (biotin capacity 130 pmol/mg), and light emitted was measured in a scintillation counter.
Kinase reaction: 8 µM biotinylated peptide (4 repeats of LRRWSLG, commercially available from Sigma, catalogue no. L-3523), 10 µM ATP (0.5 uCi P^33γ-ATP), 7.5 ng Aurora 2, inhibitor in a final volume of 30 µl buffer (HEPES 50 mM pH 7.0, MgCl2 10 mM, 1 mM DTT, 0.2 mg/mL BSA, 3 µM orthovanadate) were added to each well of a 96 U bottom well plate. After 60 minutes at room temperature incubation, the reaction was stopped and biotinylated peptide captured by adding 100 µl of bead suspension.
Stratification: 100 µl of CsCl 5 M were added to each well and stood for 4 hours before radioactivity was counted in the Top-Count instrument.
IC50 determination: inhibitors were tested at different concentrations ranging from 0.0015 to 10 µM. Experimental data were analyzed by the computer program GraphPad Prizm using the four parameter logistic equation: y = bottom+(top-bottom)/(1+10^((logIC50-x)*slope)) where x is the logarithm of the inhibitor concentration, y is the response; y starts at bottom and goes to top with a sigmoid shape. Ki calculation: Experimental method: Reaction was carried out in buffer (10 mM Tris, pH 7.5, 10 mM MgCl2, 0.2 mg/mL BSA, 7.5 mM DTT) containing 3.7 nM enzyme, histone and ATP (constant ratio of cold/labeled ATP 1/3000). The reaction was stopped with EDTA and the substrate captured on phosphomembrane (Multiscreen 96 well plates from Millipore). After extensive washing, the multiscreen plates were read on a top counter. Control (time zero) for each ATP and histone concentrations was measured.

Row | IC50 [nM] | Compound
1 | < 10 | CC(C)(NC(=O)c1cc2[nH]nc(NC(=O)c3ccccc3)c2o1)c1ccccc1F [Compound 72, 3-(benzoylamino)-N-[1-(2-fluorophenyl)-1-methylethyl]-1H-furo[3,2-c]pyrazole-5-carboxamide]
2 | < 10 | O=C(Nc1n[nH]c2cc(C(=O)NC3(c4ccccc4)CC3)oc12)c1ccc(N2CCOCC2)cc1 [Compound 7, 3-[(4-morpholin-4-ylbenzoyl)amino]-N-(1-phenylcyclopropyl)-1H-furo[3,2-c]pyrazole-5-carboxamide]
3 | < 10 | CN1CCN(c2ccc(C(=O)Nc3n[nH]c4cc(C(=O)NC(C)(C)c5ccccc5F)oc34)cc2)CC1 [Compound 67, N-[1-(2-fluorophenyl)-1-methylethyl]-3-{[4-(4-methylpiperazin-1-yl)benzoyl]amino}-1H-furo[3,2-c]pyrazole-5-carboxamide]
4 | < 10 | CC(C)(NC(=O)c1cc2[nH]nc(NC(=O)c3cccs3)c2o1)c1ccc(F)cc1F [Compound 58, N-[1-(2,4-difluorophenyl)-1-methylethyl]-3-[(2-thienylcarbonyl)amino]-1H-furo[3,2-c]pyrazole-5-carboxamide]
5 | < 10 | Cc1cc(C(=O)Nc2n[nH]c3cc(C(=O)NC(C)(C)c4ccccc4)oc23)c(C)o1 [Compound 50, 3-[(2,5-dimethyl-3-furoyl)amino]-N-(1-methyl-1-phenylethyl)-1H-furo[3,2-c]pyrazole-5-carboxamide]
6 | < 10 | CC(C)(NC(=O)c1cc2[nH]nc(NC(=O)c3ccsc3)c2o1)c1ccccc1 [Compound 63, N-(1-methyl-1-phenylethyl)-3-[(3-thienylcarbonyl)amino]-1H-furo[3,2-c]pyrazole-5-carboxamide]
7 | < 10 | CN1CCN(c2ccc(C(=O)Nc3n[nH]c4cc(C(=O)NC(C)(C)c5ccccc5)oc34)cc2)CC1 [Compound 10, N-(1-methyl-1-phenylethyl)-3-{[4-(4-methylpiperazin-1-yl)benzoyl]amino}-1H-furo[3,2-c]pyrazole-5-carboxamide]
8 | < 10 | Cc1ccoc1C(=O)Nc1n[nH]c2cc(C(=O)NC(C)(C)c3ccccc3)oc12 [Compound 53, 3-[(3-methyl-2-furoyl)amino]-N-(1-methyl-1-phenylethyl)-1H-furo[3,2-c]pyrazole-5-carboxamide]
9 | < 10 | CC(C)(NC(=O)c1cc2[nH]nc(NC(=O)c3cscn3)c2o1)c1ccccc1 [Compound 64, N-(1-methyl-1-phenylethyl)-3-[(1,3-thiazol-4-ylcarbonyl)amino]-1H-furo[3,2-c]pyrazole-5-carboxamide]
10 | < 10 | CC(C)(NC(=O)c1cc2[nH]nc(NC(=O)c3ccco3)c2o1)c1ccccc1 [Compound 28, 3-(2-furoylamino)-N-(1-methyl-1-phenylethyl)-1H-furo[3,2-c]pyrazole-5-carboxamide]
11 | < 10 | CC(C)(NC(=O)c1cc2[nH]nc(NC(=O)c3ccco3)c2o1)c1ccccc1F [Compound 39, N-[1-(2-fluorophenyl)-1-methylethyl]-3-(2-furoylamino)-1H-furo[3,2-c]pyrazole-5-carboxamide]
12 | < 10 | Cc1csc(C(=O)Nc2n[nH]c3cc(C(=O)NC(C)(C)c4ccccc4)oc23)c1 [Compound 48, N-(1-methyl-1-phenylethyl)-3-{[(4-methyl-2-thienyl)carbonyl]amino}-1H-furo[3,2-c]pyrazole-5-carboxamide]
13 | < 10 | Cc1ccc(C(=O)Nc2n[nH]c3cc(C(=O)NC(C)(C)c4ccccc4)oc23)s1 [Compound 45, N-(1-methyl-1-phenylethyl)-3-{[(5-methyl-2-thienyl)carbonyl]amino}-1H-furo[3,2-c]pyrazole-5-carboxamide]
14 | < 10 | CN1CCN(c2ccc(C(=O)Nc3n[nH]c4cc(C(=O)NC(C)(C)c5cccc(Cl)c5)oc34)cc2)CC1 [Compound 26, N-[1-(3-chlorophenyl)-1-methylethyl]-3-{[4-(4-methylpiperazin-1-yl)benzoyl]amino}-1H-furo[3,2-c]pyrazole-5-carboxamide]
15 | < 10 | Cn1nccc1C(=O)Nc1n[nH]c2cc(C(=O)NC(C)(C)c3ccccc3)oc12 [Compound 55, N-(1-methyl-1-phenylethyl)-3-{[(1-methyl-1H-pyrazol-5-yl)carbonyl]amino}-1H-furo[3,2-c]pyrazole-5-carboxamide]
16 | < 10 | CC(C)(NC(=O)c1cc2[nH]nc(NC(=O)c3ccoc3)c2o1)c1ccccc1 [Compound 62, 3-(3-furoylamino)-N-(1-methyl-1-phenylethyl)-1H-furo[3,2-c]pyrazole-5-carboxamide]
17 | < 10 | O=C(Nc1n[nH]c2cc(C(=O)NC3(c4ccccc4)CCCC3)oc12)c1ccco1 [Compound 40, 3-(2-furoylamino)-N-(1-phenylcyclopentyl)-1H-furo[3,2-c]pyrazole-5-carboxamide]
18 | < 10 | CC(C)(NC(=O)c1cc2[nH]nc(NC(=O)c3ccc(CN4CCC4)cc3)c2o1)c1ccccc1 [Compound 43, 3-{[4-(azetidin-1-ylmethyl)benzoyl]amino}-N-(1-methyl-1-phenylethyl)-1H-furo[3,2-c]pyrazole-5-carboxamide]
19 | < 10 | Cn1ccc(C(=O)Nc2n[nH]c3cc(C(=O)NC(C)(C)c4ccccc4)oc23)n1 [Compound 56, N-(1-methyl-1-phenylethyl)-3-{[(1-methyl-1H-pyrazol-3-yl)carbonyl]amino}-1H-furo[3,2-c]pyrazole-5-carboxamide]
20 | < 10 | CC(C)(NC(=O)c1cc2[nH]nc(NC(=O)c3ccccc3)c2o1)c1ccccc1 [Compound 71, 3-(benzoylamino)-N-(1-methyl-1-phenylethyl)-1H-furo[3,2-c]pyrazole-5-carboxamide]
21 | < 10 | Cc1ccsc1C(=O)Nc1n[nH]c2cc(C(=O)NC(C)(C)c3ccccc3)oc12 [Compound 44, N-(1-methyl-1-phenylethyl)-3-{[(3-methyl-2-thienyl)carbonyl]amino}-1H-furo[3,2-c]pyrazole-5-carboxamide]
22 | < 10 | Cc1occc1C(=O)Nc1n[nH]c2cc(C(=O)NC(C)(C)c3ccccc3)oc12 [Compound 41, 3-[(2-methyl-3-furoyl)amino]-N-(1-methyl-1-phenylethyl)-1H-furo[3,2-c]pyrazole-5-carboxamide]
23 | < 10 | CC(C)(NC(=O)c1cc2[nH]nc(NC(=O)c3ccc(CN4CCOCC4)cc3)c2o1)c1ccccc1 [Compound 32, N-(1-methyl-1-phenylethyl)-3-{[4-(morpholin-4-ylmethyl)benzoyl]amino}-1H-furo[3,2-c]pyrazole-5-carboxamide]
24 | < 10 | CC(C)(NC(=O)c1cc2[nH]nc(NC(=O)c3ccc(OCCN4CCCC4)cc3)c2o1)c1ccccc1F [Compound 69, N-[1-(2-fluorophenyl)-1-methylethyl]-3-{[4-(2-pyrrolidin-1-ylethoxy)benzoyl]amino}-1H-furo[3,2-c]pyrazole-5-carboxamide]
25 | < 10 | Cc1cc(C(=O)Nc2n[nH]c3cc(C(=O)NC(C)(C)c4ccccc4)oc23)n(C)n1 [Compound 38, 3-{[(1,3-dimethyl-1 H-pyrazol-5-yl)carbonyl]amino}-N-(1-methyl-1-phenylethyl)-1H-furo[3,2-c]pyrazole-5-carboxamide]
26 | < 10 | CC(C)(NC(=O)c1cc2[nH]nc(NC(=O)c3ccc(F)cc3)c2o1)c1ccccc1 [Compound 4, 3-[(4-fluorobenzoyl)amino]-N-(1-methyl-1-phenylethyl)-1H-furo[3,2-c]pyrazole-5-carboxamide]
27 | < 10 | CC(C)(NC(=O)c1cc2[nH]nc(NC(=O)c3ccc(CN4CCCCC4)cc3)c2o1)c1ccccc1 [Compound 59, N-(1-methyl-1-phenylethyl)-3-{[4-(piperidin-1-ylmethyl)benzoyl]amino}-1H-furo[3,2-c]pyrazole-5-carboxamide]
28 | < 10 | Cn1cccc1C(=O)Nc1n[nH]c2cc(C(=O)NC(C)(C)c3ccccc3)oc12 [Compound 33, N-(1-methyl-1-phenylethyl)-3-{[(1-methyl-1H-pyrrol-2-yl)carbonyl]amino}-1H-furo[3,2-c]pyrazole-5-carboxamide]
29 | < 10 | CC(C)(NC(=O)c1cc2[nH]nc(NC(=O)c3ccc(CN4CCCC4)cc3)c2o1)c1ccccc1F [Compound 73, N-[1-(2-fluorophenyl)-1-methylethyl]-3-{[4-(pyrrolidin-1-ylmethyl)benzoyl]amino}-1H-furo[3,2-c]pyrazole-5-carboxamide]
